# Experimental data: US4623626A (priority 1982, dated 1986)
# “Also recorded” adds a separate entry of the source. Like-named read-outs stand apart in the source and are kept apart here.
# Experiments:
# [1] = pH of 6.0 or less or pH 10.0 or more
# [2] = target: T1, L-glutamic acid oxidase (enzyme of the present invention) (Streptomyces sp, UniProt Q8L3C7); assay: km values of the enzyme of the present invention; format: biochemical, Streptomyces sp. X-119-6; conditions: pH 7.4
# T1 construct: isolated and purified the enzyme of the present invention as a single enzyme protein from such a cultured product of the microorganism; made in house; host or cells: natural producer, Streptomyces sp; (strain X-119-6 per the earlier reading); enzyme purified from the cultured product, not recombinant
# T1 sequence (Q8L3C7 15-390 limits assumed): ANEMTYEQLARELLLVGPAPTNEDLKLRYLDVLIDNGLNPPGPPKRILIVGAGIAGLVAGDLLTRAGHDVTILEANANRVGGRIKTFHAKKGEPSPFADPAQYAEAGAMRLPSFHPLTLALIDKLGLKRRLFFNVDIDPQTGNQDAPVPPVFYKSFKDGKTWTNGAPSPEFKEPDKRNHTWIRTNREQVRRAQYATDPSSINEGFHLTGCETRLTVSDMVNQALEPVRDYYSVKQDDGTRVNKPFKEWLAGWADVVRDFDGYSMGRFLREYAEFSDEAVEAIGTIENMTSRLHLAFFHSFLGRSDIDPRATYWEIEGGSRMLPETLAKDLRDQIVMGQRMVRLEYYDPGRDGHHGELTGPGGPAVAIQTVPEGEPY
# T1 sequence (Q8L3C7 391-520 limits assumed): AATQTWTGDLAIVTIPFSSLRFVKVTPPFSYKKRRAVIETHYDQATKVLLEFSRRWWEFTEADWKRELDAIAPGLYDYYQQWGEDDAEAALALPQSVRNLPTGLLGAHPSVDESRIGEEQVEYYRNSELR
# T1 sequence (Q8L3C7 521-701 limits assumed): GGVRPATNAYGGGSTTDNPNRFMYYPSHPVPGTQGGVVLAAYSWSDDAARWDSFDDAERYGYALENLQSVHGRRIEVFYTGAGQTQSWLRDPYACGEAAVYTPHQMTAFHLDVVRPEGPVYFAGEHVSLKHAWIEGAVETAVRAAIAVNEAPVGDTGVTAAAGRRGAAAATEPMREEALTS
# Procedure: That is, 1 ml of 0.1 M potassium phosphate buffer (pH 7.4) containing 10 mM sodium L-glutamate was charged into an oxygen electrode cell and 10 μl of an enzyme solution was added thereto to measure the oxygen consumption rate. One unit of enzyme was determined as the amount of enzyme which consumes 1μ mol of oxygen per minute at 30° C. in the absence of catalase (unit: hereinafter abbreviated as "U").
# [3] = test system: glutamic acid oxidase (known enzyme); conditions: cited from earlier work; for activity of the known enzyme for the substrate: relative to L-glutamic acid; for relative activity of the known enzyme: velocity for L-glutamic acid given as 100
# [4] = target: T1, L-glutamic acid oxidase (enzyme of the present invention); assay: Substrate specificity of the enzyme of the present invention, oxygen electrode method; format: biochemical, Streptomyces sp. X-119-6
# Procedure: The concentration of each substrate was 10 mM, and the reactions were carried out at pH 7.4 (0.1 M potassium phosphate buffer) and pH 6.0 (0.1 M acetate buffer).
# [5] = target: T1, L-glutamic acid oxidase (enzyme of the present invention); assay: Effects of additives on the enzyme activity (inhibition, activation); format: biochemical, Streptomyces sp. X-119-6; conditions: additive 1 mM
# Procedure: For examination of the effects of various additives on the enzyme activity of the present invention, enzymatic reaction was carried out in a reaction mixture (pH 7.4) containing each of the substances shown in Table 2 at a concentration of 1 mM.
# [6] = test system: glutamic acid oxidase (known enzyme); conditions: cited from earlier work
compound,measurement,setting,value
N[C@@H](CC(=O)O)C(=O)O [L-Aspartic acid],action of the enzyme of the present invention on the substrate,[1],substantially no action
same,Km,[2],29 mM
same,activity of the known enzyme for the substrate,[3],≤ 0.1%
same,activity of the enzyme of the present invention for the substrate,[4]; pH 6.0,substantially no activity
N[C@@H](Cc1c[nH]cn1)C(=O)O [L-Histidine],activity of the known enzyme for the substrate,[3],6.8%
same,relative activity of the known enzyme,[3],6.8
same,activity of the enzyme of the present invention for the substrate,[4],substantially no activity
[Ca+2].[Cl-].[Cl-] [CaCl2],Relative activity,"[5]; reaction mixture pH 7.4, no addition = 100",100.0
[Cu+2] [copper ions],inhibition of the known enzyme,[6],Substantially completely inhibited; also recorded: markedly inhibited
N[C@H](CCC(=O)O)C(=O)O [D-Glutamic acid],activity of the enzyme of the present invention for the substrate,[4],substantially no activity
NC(=O)CC[C@H](N)C(=O)O [L-Glutamine],activity of the known enzyme for the substrate,[3],8.4%
same,relative activity of the known enzyme,[3],8.4
same,activity of the enzyme of the present invention for the substrate,[4],substantially no activity
"[Cl][Cu][Cl] [CuCl2, cupric chloride]",inhibition of the known enzyme,[6],completely inhibited
same,inhibition of the activity of the enzyme of the present invention,[5]; pH 7.4,not inhibited at all
